Reference: patent publication US12030878B2 (BRISTOL-MYERS SQUIBB COMPANY, priority 2017, dated 2024)
pIC50: −log10 of the molar value.

Legend:
Type in all cases: cell-based
human TLR9 = biological target: T1, human TLR9 (Homo sapiens, UniProt Q9NR96); assay: TLR9 inhibition reporter assay (HEK-Blue SEAP); details: HEK-Blue cells overexpressing human TLR9, stimulated with ODN2006 5 nM, 22 hour incubation
T1 construct: host or cells: HEK-Blue cells
T1 sequence (Q9NR96 26-1032): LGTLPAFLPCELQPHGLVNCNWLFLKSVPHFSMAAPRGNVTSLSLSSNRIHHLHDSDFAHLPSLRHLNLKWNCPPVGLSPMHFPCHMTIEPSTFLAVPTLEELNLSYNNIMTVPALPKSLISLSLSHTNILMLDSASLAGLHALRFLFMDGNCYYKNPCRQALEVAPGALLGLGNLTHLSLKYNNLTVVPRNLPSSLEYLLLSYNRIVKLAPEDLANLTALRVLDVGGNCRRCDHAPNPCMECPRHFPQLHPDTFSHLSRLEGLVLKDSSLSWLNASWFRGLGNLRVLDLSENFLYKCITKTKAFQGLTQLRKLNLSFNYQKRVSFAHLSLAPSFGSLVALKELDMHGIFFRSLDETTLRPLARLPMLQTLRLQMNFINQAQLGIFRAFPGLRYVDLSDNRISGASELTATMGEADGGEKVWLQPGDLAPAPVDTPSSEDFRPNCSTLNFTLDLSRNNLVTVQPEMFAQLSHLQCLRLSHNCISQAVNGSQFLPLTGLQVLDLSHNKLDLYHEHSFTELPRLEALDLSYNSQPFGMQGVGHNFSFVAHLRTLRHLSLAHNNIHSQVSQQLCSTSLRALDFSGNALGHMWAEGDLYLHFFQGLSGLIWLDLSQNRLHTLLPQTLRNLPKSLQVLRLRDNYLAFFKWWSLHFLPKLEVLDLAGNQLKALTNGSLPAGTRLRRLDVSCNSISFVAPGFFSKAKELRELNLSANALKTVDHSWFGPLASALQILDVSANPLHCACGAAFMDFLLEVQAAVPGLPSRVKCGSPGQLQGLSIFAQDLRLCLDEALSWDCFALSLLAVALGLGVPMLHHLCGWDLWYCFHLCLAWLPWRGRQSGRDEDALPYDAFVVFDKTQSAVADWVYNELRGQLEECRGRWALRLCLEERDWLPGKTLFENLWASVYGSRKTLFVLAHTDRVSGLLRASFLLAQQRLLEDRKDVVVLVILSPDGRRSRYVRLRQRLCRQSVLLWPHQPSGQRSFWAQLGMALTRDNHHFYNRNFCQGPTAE
Procedure, shortened: (§1)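 Test compounds, final 0.05 nM–50 μM, pre-treat HEK-Blue human TLR7, TLR8 or TLR9 reporter cells before agonist addition (TLR8 R848 15.9 μM; TLR7 gardiquimod 7.5 μM; TLR9 ODN2006 5 nM). Incubation runs 22 h, 37 °C. SEAP detection gives percent inhibition against DMSO and reference-inhibitor controls.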

human TLR8 = biological target: T2, human TLR8 (Homo sapiens, UniProt Q9NR97); assay: TLR8 inhibition reporter assay (HEK-Blue SEAP); details: HEK-Blue cells overexpressing human TLR8, stimulated with R848 15.9 μM, 22 hour incubation
T2 construct: host or cells: HEK-Blue cells
T2 sequence (Q9NR97 27-1041): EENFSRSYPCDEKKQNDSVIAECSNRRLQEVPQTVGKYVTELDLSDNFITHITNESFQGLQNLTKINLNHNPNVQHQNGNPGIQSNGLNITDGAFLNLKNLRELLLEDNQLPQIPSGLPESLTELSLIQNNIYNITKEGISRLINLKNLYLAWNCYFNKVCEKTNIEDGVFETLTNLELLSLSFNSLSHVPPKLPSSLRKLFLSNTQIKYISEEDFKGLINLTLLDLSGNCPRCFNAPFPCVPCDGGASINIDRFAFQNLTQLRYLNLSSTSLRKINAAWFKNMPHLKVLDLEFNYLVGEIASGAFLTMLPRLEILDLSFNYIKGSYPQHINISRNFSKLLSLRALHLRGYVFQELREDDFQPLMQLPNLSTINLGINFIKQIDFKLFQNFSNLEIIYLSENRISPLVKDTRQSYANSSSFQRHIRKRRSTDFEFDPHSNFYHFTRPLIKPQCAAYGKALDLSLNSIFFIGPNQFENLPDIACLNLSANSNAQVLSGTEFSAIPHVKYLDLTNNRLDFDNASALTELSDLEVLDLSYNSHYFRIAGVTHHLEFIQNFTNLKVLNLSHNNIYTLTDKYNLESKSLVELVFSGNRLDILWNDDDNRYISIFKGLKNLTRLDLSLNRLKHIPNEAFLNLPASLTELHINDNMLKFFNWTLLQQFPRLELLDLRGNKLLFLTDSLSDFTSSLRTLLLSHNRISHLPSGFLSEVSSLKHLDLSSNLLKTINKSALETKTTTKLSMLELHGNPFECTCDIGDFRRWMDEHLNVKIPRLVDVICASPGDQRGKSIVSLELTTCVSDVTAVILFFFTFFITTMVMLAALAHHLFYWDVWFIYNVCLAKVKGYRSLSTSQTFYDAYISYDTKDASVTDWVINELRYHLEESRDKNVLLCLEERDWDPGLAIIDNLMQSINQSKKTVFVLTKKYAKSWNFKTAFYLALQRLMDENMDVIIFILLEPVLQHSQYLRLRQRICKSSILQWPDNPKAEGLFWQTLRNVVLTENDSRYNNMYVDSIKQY
Procedure, shortened: as §1

human TLR7 = biological target: T3, human TLR7 (Homo sapiens, UniProt Q9NYK1); assay: TLR7 inhibition reporter assay (HEK-Blue SEAP); details: HEK-Blue cells overexpressing human TLR7, stimulated with gardiquimod 7.5 μM, 22 hour incubation
T3 construct: host or cells: HEK-Blue cells
T3 sequence (Q9NYK1 27-1049): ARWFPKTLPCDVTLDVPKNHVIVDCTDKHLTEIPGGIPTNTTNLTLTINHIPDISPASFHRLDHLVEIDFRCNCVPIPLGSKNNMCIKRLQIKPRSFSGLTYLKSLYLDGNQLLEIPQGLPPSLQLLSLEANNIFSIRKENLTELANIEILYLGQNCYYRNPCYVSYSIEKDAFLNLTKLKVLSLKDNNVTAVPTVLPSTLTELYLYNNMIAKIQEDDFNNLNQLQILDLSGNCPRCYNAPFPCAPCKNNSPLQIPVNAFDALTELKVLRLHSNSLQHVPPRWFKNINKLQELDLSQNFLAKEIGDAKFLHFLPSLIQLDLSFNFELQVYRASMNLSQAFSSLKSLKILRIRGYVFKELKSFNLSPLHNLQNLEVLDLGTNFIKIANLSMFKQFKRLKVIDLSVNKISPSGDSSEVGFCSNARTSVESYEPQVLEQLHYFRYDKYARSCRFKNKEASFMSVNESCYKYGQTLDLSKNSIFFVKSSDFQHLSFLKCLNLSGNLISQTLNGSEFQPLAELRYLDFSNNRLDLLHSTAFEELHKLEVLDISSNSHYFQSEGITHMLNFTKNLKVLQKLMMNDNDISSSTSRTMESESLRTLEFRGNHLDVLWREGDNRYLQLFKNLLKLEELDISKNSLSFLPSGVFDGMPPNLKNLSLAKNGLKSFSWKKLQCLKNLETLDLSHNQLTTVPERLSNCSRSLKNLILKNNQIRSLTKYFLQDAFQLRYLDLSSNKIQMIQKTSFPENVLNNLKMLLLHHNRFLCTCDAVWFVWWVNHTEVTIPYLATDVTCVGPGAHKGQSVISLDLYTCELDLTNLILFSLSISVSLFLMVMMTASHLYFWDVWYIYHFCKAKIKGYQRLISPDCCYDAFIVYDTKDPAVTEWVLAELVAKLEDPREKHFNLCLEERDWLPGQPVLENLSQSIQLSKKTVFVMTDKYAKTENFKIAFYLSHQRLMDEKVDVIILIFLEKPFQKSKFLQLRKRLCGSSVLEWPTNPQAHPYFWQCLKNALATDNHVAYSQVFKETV
Procedure, shortened: as §1

SMILES	pIC50 (human TLR9)	pIC50 (human TLR8)	pIC50 (human TLR7)
Cc1cc(-c2[nH]c3ccc(OCC(=O)NCCC4CCCNC4)cc3c2C(C)C)ccn1 (stereo not drawn) [Example 146, 2-((3-isopropyl-2-(2-methylpyridin-4-yl)-1H-indol-5-yl)oxy)-N-(2-(piperidin-3-yl)ethyl)acetamide]	6.03	7.01	6.11
Cc1cc(-c2[nH]c3ccc(OCC(=O)N(C)C4CCNCC4)cc3c2C(C)C)ccn1 [Example 148, 2-((3-isopropyl-2-(2-methylpyridin-4-yl)-1H-indol-5-yl)oxy)-N-methyl-N-(piperidin-4-yl) acetamide]	6.76	7.29	6.85
Cc1cc(-c2[nH]c3ccc(OCC(=O)N4CC5CN(C)CC5C4)cc3c2C(C)C)ccn1 (stereo not drawn) [Example 149, 2-((3-isopropyl-2-(2-methylpyridin-4-yl)-1H-indol-5-yl)oxy)-1-(5-methylhexahydropyrrolo[3,4-c]pyrrol-2(1H)-yl)ethan-1-one]	6.39	7.62	6.93
COc1ccc(-c2[nH]c3ccc(OCC(=O)NCC(C)(C)O)cc3c2C(C)C)cc1OC [Example 150, 2-((2-(3,4-dimethoxyphenyl)-3-isopropyl-1H-indol-5-yl)oxy)-N-(2-hydroxy-2-methylpropyl)acetamide]	< 4.30	6.02	6.52
Cc1cc(-c2[nH]c3ccc(OCC(=O)NCC(C)(C)O)cc3c2C(C)C)ccn1 [Example 151, N-(2-hydroxy-2-methylpropyl)-2-((3-isopropyl-2-(2-methylpyridin-4-yl)-1H-indol-5-yl)oxy)acetamide]	< 4.30	6.25	6.39
Cc1cc(-c2[nH]c3ccc(OCC(=O)NC[C@@H](F)C(C)(C)O)cc3c2C(C)C)ccn1 [Example 152, (R)—N-(2-fluoro-3-hydroxy-3-methylbutyl)-2-((3-isopropyl-2-(2-methylpyridin-4-yl)-1H-indol-5-yl)oxy)acetamide]	< 4.30	6.11	6.00
COc1ccc(-c2[nH]c3ccc(OCC(=O)NC[C@@H](F)C(C)(C)O)cc3c2C(C)C)cc1OC [Example 154, (R)-2-((2-(3,4-dimethoxyphenyl)-3-isopropyl-1H-indol-5-yl)oxy)-N-(2-fluoro-3-hydroxy-3-methylbutyl) acetamide]	< 4.30	5.72	6.05
Cc1cc(-c2[nH]c3ccc(OCC(=O)NCCC(C)(C)O)cc3c2C(C)C)ccn1 [Example 155, N-(3-hydroxy-3-methylbutyl)-2-((3-isopropyl-2-(2-methylpyridin-4-yl)-1H-indol-5-yl)oxy)acetamide]	< 4.30	6.14	6.11
Cc1cc(-c2[nH]c3ccc(OCC4CCNCC4)cc3c2C(C)C)ccn1 [Example 156]	6.14	8.49	7.89
COc1ccc(-c2[nH]c3ccc(OCC4CCN(Cc5ccccc5)CC4)cc3c2C(C)C)cc1OC [Example 160, 5-((1-benzylpiperidin-4-yl)methoxy)-2-(3,4-dimethoxyphenyl)-3-isopropyl-1H-indole]	5.12	6.89	6.56

Second part, the compound after the results:

pIC50 (human TLR9)	pIC50 (human TLR8)	pIC50 (human TLR7)	SMILES
5.81	6.32	5.92	Cc1cc(-c2[nH]c3ccc(OCC(=O)N4CCC(CN)CC4)cc3c2C(C)C)ccn1 [Example 147, 1-(4-(aminomethyl)piperidin-1-yl)-2-((3-isopropyl-2-(2-methylpyridin-4-yl)-1H-indol-5-yl)oxy)ethan-1-one]
< 4.30	5.60	6.34	COc1ccc(-c2[nH]c3ccc(OCC(=O)NCCC(C)(C)O)cc3c2C(C)C)cc1OC [Example 153, 2-((2-(3,4-dimethoxyphenyl)-3-isopropyl-1H-indol-5-yl)oxy)-N-(3-hydroxy-3-methylbutyl)acetamide]
5.72	8.15	8.06	Cc1cc(-c2[nH]c3ccc(O[C@@H]4CCNC4)cc3c2C(C)C)ccn1 [Example 157, (R)-3-isopropyl-2-(2-methylpyridin-4-yl)-5-(pyrrolidin-3-yloxy)-1H-indole]
5.52	7.56	7.31	COc1ccc(-c2[nH]c3ccc(OCCC4CCNCC4)cc3c2C(C)C)cc1OC [Example 158, 2-(3,4-dimethoxyphenyl)-3-isopropyl-5-(2-(piperidin-4-yl)ethoxy)-1H-indole]
5.63	7.59	7.44	COc1ccc(-c2[nH]c3ccc(OCC4CCNCC4)cc3c2C(C)C)cc1OC [Example 159, 2-(3,4-dimethoxyphenyl)-3-isopropyl-5-(piperidin-4-ylmethoxy)-1H-indole]
6.66	8.38	7.66	CCc1c(-c2ccnc(C)c2)[nH]c2ccc(OCC3CCNCC3)cc12 [Example 161, 3-ethyl-2-(2-methylpyridin-4-yl)-5-(piperidin-4-ylmethoxy)-1H-indole]
